From PubChem BioAssay AID270 (DTP/NCI, 2004)
Where “and” joins values, the source holds several entries; their conditions need not be identical. Equal entries are not always repeated. Inconclusive results are not listed.

Test system: BDF1 mice, s.c. Lewis lung carcinoma, T/C %
Assay: NCI In Vivo Anticancer Drug Screen. Data for tumor model Lewis Lung Carcinoma (subcutaneous) in B6D2F1 (BDF1) mice
Method in brief: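 Transplanted tumors grown in mice; compound vs vehicle dosing; endpoint survival or tumor size; ratio T/C.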

Compound: NC(C/[N+]([O-])=N/O)C(=O)O (stereo not drawn)
- T/C (endpoint: median survival time, dose: 8.78 mg/kg/injection, schedule: Q01DX010 (ip), vehicle: alkali diluted with saline, higher = longer survival): 103 % of control and 105 % of control
- T/C (endpoint: median survival time, dose: 13.2 mg/kg/injection, schedule: Q01DX010 (ip), vehicle: alkali diluted with saline, higher = longer survival): 120 % of control and 121 % of control
- T/C (endpoint: median survival time, dose: 19.8 mg/kg/injection, schedule: Q01DX010 (ip), vehicle: alkali diluted with saline, higher = longer survival): 102 % of control
- T/C (endpoint: median survival time, dose: 29.6 mg/kg/injection, schedule: Q01DX010 (ip), vehicle: alkali diluted with saline, higher = longer survival): 105 % of control
- T/C (endpoint: median survival time, dose: 44.4 mg/kg/injection, schedule: Q01DX010 (ip), vehicle: alkali diluted with saline, higher = longer survival): 114 % of control and 116 % of control
- T/C (endpoint: median survival time, dose: 66.7 mg/kg/injection, schedule: Q01DX010 (ip), vehicle: alkali diluted with saline, higher = longer survival): 117 % of control
- T/C (endpoint: median survival time, dose: 100.0 mg/kg/injection, schedule: Q01DX010 (ip), vehicle: alkali diluted with saline, higher = longer survival): 98 % of control
- T/C (endpoint: median survival time, dose: 1000.0 mg/kg/injection, schedule: Q01DX001 (ip), vehicle: saline, higher = longer survival): 96 % of control

Compound: CO[C@@]12[C@H](COC(N)=O)C3=C(C(=O)C(C)=C(N)C3=O)N1C[C@@H]1N[C@@H]12
- T/C (endpoint: median survival time, dose: 0.12 mg/kg/injection, schedule: Q01DX009 (ip), vehicle: saline, higher = longer survival): 98 % of control
- T/C (endpoint: median survival time, dose: 0.25 mg/kg/injection, schedule: Q01DX009 (ip), vehicle: Klucel (hydroxypropylcellulose) (HPC), higher = longer survival): 96 % of control
- T/C (endpoint: median survival time, dose: 0.25 mg/kg/injection, schedule: Q01DX009 (ip), vehicle: saline, higher = longer survival): 98 % of control
- T/C (endpoint: median survival time, dose: 0.5 mg/kg/injection, schedule: Q01DX009 (ip), vehicle: Klucel (hydroxypropylcellulose) (HPC), higher = longer survival): 96 % of control
- T/C (endpoint: median survival time, dose: 0.5 mg/kg/injection, schedule: Q01DX009 (ip), vehicle: saline, higher = longer survival): 96 % of control
- T/C (endpoint: median survival time, dose: 1.0 mg/kg/injection, schedule: Q01DX009 (ip), vehicle: saline, higher = longer survival): 103 % of control

Compound: COc1cc2c[n+](C)c3c4cc5c(cc4ccc3c2cc1OC)OCO5
- T/C (endpoint: median survival time, dose: 5.0 mg/kg/injection, schedule: Q01DX009 (ip), vehicle: water, higher = longer survival): 103 % of control
- T/C (endpoint: median survival time, dose: 10.0 mg/kg/injection, schedule: Q01DX009 (ip), vehicle: water, higher = longer survival): 107 % of control
- T/C (endpoint: median survival time, dose: 20.0 mg/kg/injection, schedule: Q01DX009 (ip), vehicle: water, higher = longer survival): 87 % of control

Compound: O=P1(NCCCl)OCCCN1CCCl (stereo not drawn)
- T/C (endpoint: mean tumor weight, dose: 12.5 mg/kg/injection, schedule: Q01DX011 (ip), vehicle: saline, higher = larger tumour): 114 % of control
- T/C (endpoint: mean tumor weight, dose: 25.0 mg/kg/injection, schedule: Q01DX011 (ip), vehicle: saline, higher = larger tumour): 14 % of control
- T/C (endpoint: mean tumor weight, dose: 50.0 mg/kg/injection, schedule: Q01DX011 (ip), vehicle: saline, higher = larger tumour): 2 % of control
- T/C (endpoint: median survival time, dose: 25.0 mg/kg/injection, schedule: Q01DX009 (ip), vehicle: Klucel (hydroxypropylcellulose) (HPC), higher = longer survival): 100 % of control
- T/C (endpoint: median survival time, dose: 50.0 mg/kg/injection, schedule: Q01DX001 (ip), vehicle: saline, higher = longer survival): 106 % of control
- T/C (endpoint: median survival time, dose: 50.0 mg/kg/injection, schedule: Q01DX009 (ip), vehicle: Klucel (hydroxypropylcellulose) (HPC), higher = longer survival): 150 % of control
- T/C (endpoint: median survival time, dose: 100.0 mg/kg/injection, schedule: Q01DX001 (ip), vehicle: saline, higher = longer survival): 124 % of control
- T/C (endpoint: median survival time, dose: 200.0 mg/kg/injection, schedule: Q01DX001 (ip), vehicle: saline, higher = longer survival): 200 % of control and 243 % of control
- T/C (endpoint: median survival time, dose: 400.0 mg/kg/injection, schedule: Q01DX001 (ip), vehicle: saline, higher = longer survival): 200 % of control and 243 % of control
- T/C (endpoint: median survival time, dose: 800.0 mg/kg/injection, schedule: Q01DX001 (ip), vehicle: saline, higher = longer survival): 243 % of control

Compound: CC(C)[C@]1(O)CC[C@H]2[C@@H]3CCc4cc(O)ccc4[C@H]3CC[C@@]21C
- T/C (endpoint: mean tumor weight, dose: 2.5 mg/kg/injection, schedule: Q01DX011 (sc), vehicle: saline, higher = larger tumour): 87 % of control
- T/C (endpoint: mean tumor weight, dose: 5.0 mg/kg/injection, schedule: Q01DX011 (sc), vehicle: saline, higher = larger tumour): 68 % of control
- T/C (endpoint: mean tumor weight, dose: 10.0 mg/kg/injection, schedule: Q01DX011 (sc), vehicle: saline, higher = larger tumour): 80 % of control
- T/C (endpoint: mean tumor weight, dose: 10.0 mg/kg/injection, schedule: Q01DX011 (sc), vehicle: steriod suspending solution, higher = larger tumour): 51 % of control
- T/C (endpoint: mean tumor weight, dose: 20.0 mg/kg/injection, schedule: Q01DX011 (sc), vehicle: steriod suspending solution, higher = larger tumour): 65 % of control
- T/C (endpoint: mean tumor weight, dose: 40.0 mg/kg/injection, schedule: Q01DX011 (sc), vehicle: steriod suspending solution, higher = larger tumour): 36 % of control
- T/C (endpoint: mean tumor weight, dose: 80.0 mg/kg/injection, schedule: Q01DX011 (sc), vehicle: steriod suspending solution, higher = larger tumour): 55 % of control

Compound: FCCNC1CCCCC1
- T/C (endpoint: mean tumor weight, dose: 1.5 mg/kg/injection, schedule: Q01DX011 (ip), vehicle: carboxymethylcellulose (CMC), higher = larger tumour): 99 % of control
- T/C (endpoint: mean tumor weight, dose: 5.0 mg/kg/injection, schedule: Q01DX011 (ip), vehicle: carboxymethylcellulose (CMC), higher = larger tumour): 89 % of control
- T/C (endpoint: mean tumor weight, dose: 7.5 mg/kg/injection, schedule: Q01DX011 (ip), vehicle: carboxymethylcellulose (CMC), higher = larger tumour): 68 % of control

Compound: CNNCc1ccc(C(=O)NC(C)C)cc1
- T/C (endpoint: median survival time, dose: 25.0 mg/kg/injection, schedule: Q08HX024 (ip), vehicle: saline, higher = longer survival): 100 % of control
- T/C (endpoint: median survival time, dose: 50.0 mg/kg/injection, schedule: Q08HX024 (ip), vehicle: saline, higher = longer survival): 112 % of control

Compound: Clc1cccc(Br)c1
- T/C (endpoint: mean tumor weight, dose: 25.0 mg/kg/injection, schedule: Q01DX011 (ip), vehicle: other, higher = larger tumour): 95 % of control
- T/C (endpoint: mean tumor weight, dose: 50.0 mg/kg/injection, schedule: Q01DX011 (ip), vehicle: other, higher = larger tumour): 81 % of control
- T/C (endpoint: mean tumor weight, dose: 100.0 mg/kg/injection, schedule: Q01DX011 (ip), vehicle: other, higher = larger tumour): 58 % of control
- T/C (endpoint: mean tumor weight, dose: 200.0 mg/kg/injection, schedule: Q01DX011 (ip), vehicle: other, higher = larger tumour): 30 % of control
